# Experimental data from patent US20030190378A1, “Extract of processed Panax genus plant, the preparation method thereof, and compositions containing the same” (priority 2002, published 2003).
# What was measured:
# [1] = tested on: ICR mouse; experiment: Passive cutaneous anaphylaxis test (Evans blue leakage); assay type: in vivo; conditions: for anti-allergic effect in words, passive cutaneous anaphylaxis: Tables 5 and 6
# Experimental: 50 μl of diluted solution with physiological saline containing 10 μg of mouse IgE serum against dinitrophenol-human serum album (DNP-HSA, Sigma, USA), was injected to the back of ICR mouse (Dae Han Co., Ltd) anesthetized with ether to be passive sensitization. After 48 hours, 0.2 ml of physiological saline solution containing 0.2 mg of DNP-HSA and 1.6 mg of Evans blue was injected to the mouse's tail vein and the mouse was sacrificed by cervical dislocation to death and then the amount of Evans blue dye leaked to mouse's back was measured as follows. Certain circular area of mouse's back distant from the area where IGE injected about 1 cm^2 far, was cut and put into a test tube. 4 ml of mixture solution of 0.6M phosphoric acid and acetone with a ratio of 5:13 was added to the tube, stirred and filtered. The amount of dye was measured by colorimetric analysis at 620 nm.
# [2] = tested on: RBL-2H3 cell line; experiment: Anti-allergic effect using IgE-sensitized, DNP-BSA-activated RBL-2H3 cell line (p-NAG substrate readout); assay type: cell-based, rat; conditions: for Anti-allergic effect in RBL cell IC50 / IC50: Table 4, saponin fractions and isolated saponins; for anti-allergic effect in words, allergy inhibition test using RBL-2H3 cell line: Tables 3 and 4; for IC50: Rattus norvegicus
# Experimental: In order to confirm the anti-allergic effect of the extracts in the present invention, the experiment was performed by the procedure described in the literature (Inagaki. et al., Int, Arch. Allergy Appl. Immunol., 87, pp254-259, 1988).
# RBL-2H3 cell line (rat basophil cell line, Korean Cell Line Bank, Cat. No.22256) were incubated with DMEM (Dulbecco's modified Eagle's) medium (Sigma No. D-5648, USA) containing 10% FBS (Fetal Bovine Serum), L-glutamine for 2 hours at 37° C. by using humidified 5% CO2 incubator and attached cells were floated by trypsin-EDTA solution, separated and recovered to use in further experiment. Each RBL-2H3 cells were transferred to 24 well plate to be adjusted to 5×10^5 cells/well, treated with 0.5 μg of mouse monoclonal IgE and incubated for 12 hours to be sensitization. The cell was washed with 0.5 ml of siraganian buffer solution (pH 7.2) composed of 119 mM NaCl, 5 mM KCl, 0.4 mM MgCl2, 25 mM PIPES and 40 mM NaOH. 0.16 ml of siraganian buffer solution containing 5.5 mM glucose, 1 mM CaCl2 and 0.1% BSA, was added thereto again and incubated for 10 minutes at 37° C. Thereafter, 40 μl of test sample solution containing the extract in the Comparative Example 1, 2, 3 and Example 1, 2, 3 were added thereto. After 20 minutes, the cells were activated by adding 0.02 ml of antigen, 1 μg/ml of DNP-BSA, for 10 minutes at 37° C., centrifuged at the speed of 2000 rpm for 10 minutes and 0.025 ml of the supernatant was transferred to 96 well plate. 0.025 ml of 1 mM p-NAG substrate solution prepared by dissolving p-nitrophenyl-N-acetyl-β-D-glucosaminide with 0.1M citrate buffer solution adjusted to pH 4.5, was added thereto, incubated for 60 minutes at 37° C. and 0.2 ml of 0.1M Na2CO3/NaHCO3 was added thereto to quench the reaction to measure their optical density at 405 nm by ELISA analyzer.
Compound,"Passive cutaneous anaphylaxis Inhibitory rate (%) Abdominal administration ([1]; Table 6, 25 mg/kg abdominal) [%]",Anti-allergic effect in RBL cell IC50 [2] [µg/mL],further results
CC(C)=CCC=C(C)[C@H]1CC[C@]2(C)[C@@H]1[C@H](O)C[C@@H]1[C@@]3(C)CC[C@H](O)C(C)(C)[C@@H]3[C@@H](O[C@@H]3O[C@H](CO)[C@@H](O)[C@H](O)[C@H]3O[C@@H]3O[C@@H](C)[C@H](O)[C@@H](O)[C@H]3O)C[C@]12C (stereo in doubt) [Ginsenoside F4],63,,
CC(C)=CCC[C@@](C)(O)[C@H]1CC[C@]2(C)[C@@H]1[C@H](O)C[C@@H]1[C@@]3(C)CC[C@H](O[C@@H]4O[C@H](CO)[C@@H](O)[C@H](O)[C@H]4O)C(C)(C)[C@@H]3CC[C@]12C [20(R)-ginsenoside Rh2],,>0.2,
CC(C)=CCC[C@@](C)(O)[C@H]1CC[C@]2(C)[C@@H]1[C@H](O)C[C@@H]1[C@@]3(C)CC[C@H](O)C(C)(C)[C@@H]3CC[C@]12C [20(R)-protopanaxadiol],,>0.2,
CC(C)=CCC[C@](C)(O)[C@H]1CC[C@]2(C)[C@@H]1[C@H](O)C[C@@H]1[C@@]3(C)CC[C@H](O[C@@H]4O[C@H](CO)[C@@H](O)[C@H](O)[C@H]4O[C@@H]4O[C@H](CO)[C@@H](O)[C@H](O)[C@H]4O)C(C)(C)[C@@H]3CC[C@]12C [20(S)-ginsenoside Rg3],,>0.2,
CC(C)=CCC[C@](C)(O)[C@H]1CC[C@]2(C)[C@@H]1[C@H](O)C[C@@H]1[C@@]3(C)CC[C@H](O[C@@H]4O[C@H](CO)[C@@H](O)[C@H](O)[C@H]4O)C(C)(C)[C@@H]3CC[C@]12C [20(S)-ginsenoside Rh2],,0.03,
CC(C)=CCC[C@](C)(O)[C@H]1CC[C@]2(C)[C@@H]1[C@H](O)C[C@@H]1[C@@]3(C)CC[C@H](O)C(C)(C)[C@@H]3CC[C@]12C [20(S)-protopanaxadiol],,>0.2,
"O=C([O-])c1cc(=O)c2c(OCC(O)COc3cccc4oc(C(=O)[O-])cc(=O)c34)cccc2o1.[Na+].[Na+] [DSCG, Disodium Cromoglycate, reference compound]",,0.498,"Passive cutaneous anaphylaxis Inhibitory rate (%) ([1]; Table 5, 100 mg/kg): 37%; Passive cutaneous anaphylaxis Inhibitory rate (%) Oral administration ([1]; Table 6, 100 mg/kg oral): 37%"
"CC(C)=CC/C=C(\C)[C@H]1CC[C@]2(C)[C@@H]1[C@H](O)C[C@@H]1[C@@]3(C)CC[C@H](O[C@@H]4O[C@H](CO)[C@@H](O)[C@H](O)[C@H]4O[C@@H]4O[C@H](CO)[C@@H](O)[C@H](O)[C@H]4O)C(C)(C)[C@@H]3CC[C@]12C [Gginsenoside Rg5, ginsenoside Rg5]",45,,
CC(C)=CCC[C@](C)(O[C@@H]1O[C@H](CO)[C@@H](O)[C@H](O)[C@H]1O)[C@H]1CC[C@]2(C)[C@@H]1[C@H](O)C[C@@H]1[C@@]3(C)CC[C@H](O)C(C)(C)[C@@H]3[C@@H](O)C[C@]12C [Ginsenoside F1],69,0.13,"anti-allergic effect in words, allergy inhibition test using RBL-2H3 cell line [2]: more potent inhibition effect than that of DSCG; anti-allergic effect in words, passive cutaneous anaphylaxis [1]: more potent inhibitory effects than that of DSCG"
CC(C)=CCC[C@](C)(O[C@@H]1O[C@H](CO[C@@H]2O[C@H](CO)[C@@H](O)[C@H](O)[C@H]2O)[C@@H](O)[C@H](O)[C@H]1O)[C@H]1CC[C@]2(C)[C@@H]1[C@H](O)C[C@@H]1[C@@]3(C)CC[C@H](O[C@@H]4O[C@H](CO)[C@@H](O)[C@H](O)[C@H]4O[C@@H]4O[C@H](CO)[C@@H](O)[C@H](O)[C@H]4O)C(C)(C)[C@@H]3CC[C@]12C [Ginsenoside Rb1],,>0.2,"Passive cutaneous anaphylaxis Inhibitory rate (%) Abdominal administration ([1]; Table 6, 50 mg/kg abdominal): 17%"
CC(C)=CCC[C@](C)(O[C@@H]1O[C@H](CO[C@@H]2OC[C@H](O)[C@H](O)[C@H]2O)[C@@H](O)[C@H](O)[C@H]1O)[C@H]1CC[C@]2(C)[C@@H]1[C@H](O)C[C@@H]1[C@@]3(C)CC[C@H](O[C@@H]4O[C@H](CO)[C@@H](O)[C@H](O)[C@H]4O[C@@H]4O[C@H](CO)[C@@H](O)[C@H](O)[C@H]4O)C(C)(C)[C@@H]3CC[C@]12C [Ginsenoside Rb2],12,>0.2,
CC(C)=CCC[C@](C)(O[C@@H]1O[C@H](CO)[C@@H](O)[C@H](O)[C@H]1O)[C@H]1CC[C@]2(C)[C@@H]1[C@H](O)C[C@@H]1[C@@]3(C)CC[C@H](O)C(C)(C)[C@@H]3[C@@H](O[C@@H]3O[C@H](CO)[C@@H](O)[C@H](O)[C@H]3O[C@@H]3O[C@@H](C)[C@H](O)[C@@H](O)[C@H]3O)C[C@]12C [Ginsenoside Re],15,,IC50 [2]: 0.06 µg/mL
CC(C)=CCC[C@](C)(O)[C@H]1CC[C@]2(C)[C@@H]1[C@H](O)C[C@@H]1[C@@]3(C)CC[C@H](O)C(C)(C)[C@@H]3[C@@H](O[C@@H]3O[C@H](CO)[C@@H](O)[C@H](O)[C@H]3O[C@@H]3O[C@H](CO)[C@@H](O)[C@H](O)[C@H]3O)C[C@]12C [Ginsenoside Rf],40,,IC50 [2]: 0.11 µg/mL
CC(C)=CCC[C@](C)(O[C@@H]1O[C@H](CO)[C@@H](O)[C@H](O)[C@H]1O)[C@H]1CC[C@]2(C)[C@@H]1[C@H](O)C[C@@H]1[C@@]3(C)CC[C@H](O)C(C)(C)[C@@H]3[C@@H](O[C@@H]3O[C@H](CO)[C@@H](O)[C@H](O)[C@H]3O)C[C@]12C [Ginsenoside Rg1],37,0.08,
CC(C)=CCC[C@](C)(O)[C@H]1CC[C@]2(C)[C@@H]1[C@H](O)C[C@@H]1[C@@]3(C)CC[C@H](O[C@@H]4O[C@H](CO)[C@@H](O)[C@H](O)[C@H]4O[C@@H]4O[C@H](CO)[C@@H](O)[C@H](O)[C@H]4O)C(C)(C)[C@@H]3CC[C@]12C [Ginsenoside Rg3],,,"Passive cutaneous anaphylaxis Inhibitory rate (%) Abdominal administration ([1]; Table 6, abdominal, dosage cell empty): 47%; Passive cutaneous anaphylaxis Inhibitory rate (%) Oral administration ([1]; Table 6, oral, dosage cell empty): 38%"
CC(C)=CCC[C@](C)(O)[C@H]1CC[C@]2(C)[C@@H]1[C@H](O)C[C@@H]1[C@@]3(C)CC[C@H](O)C(C)(C)[C@@H]3[C@@H](O[C@@H]3O[C@H](CO)[C@@H](O)[C@H](O)[C@H]3O)C[C@]12C [Ginsenoside Rh1],87,0.02,"anti-allergic effect in words, allergy inhibition test using RBL-2H3 cell line [2]: more potent inhibition effect than that of DSCG; Passive cutaneous anaphylaxis Inhibitory rate (%) Oral administration ([1]; Table 6, 25 mg/kg oral): 79%; anti-allergic effect in words, passive cutaneous anaphylaxis [1]: more potent inhibitory effects than that of DSCG"
CC(C)=CCC[C@](C)(O)[C@H]1CC[C@]2(C)[C@@H]1[C@H](O)C[C@@H]1[C@@]3(C)CC[C@H](O[C@@H]4O[C@H](CO)[C@@H](O)[C@H](O)[C@H]4O)C(C)(C)[C@@H]3CC[C@]12C [Ginsenoside Rh2],88,,"anti-allergic effect in words, allergy inhibition test using RBL-2H3 cell line [2]: more potent inhibition effect than that of DSCG; Passive cutaneous anaphylaxis Inhibitory rate (%) Oral administration ([1]; Table 6, 25 mg/kg oral): 36%; anti-allergic effect in words, passive cutaneous anaphylaxis [1]: more potent inhibitory effects than that of DSCG"
CC(C)=CCC[C@@](C)(O)[C@H]1CC[C@]2(C)[C@@H]1[C@H](O)C[C@@H]1[C@@]3(C)CC[C@H](O)C(C)(C)[C@@H]3CC[C@]12C [protopanaxadiol],25,,
Δ^20-ginsenoside Rg3,,0.09,
